Data reported in patent US10653688B2, “6-(6-membered heteroaryl and aryl)isoquinolin-3-yl carboxamides and preparation and use thereof” (Samumed, LLC, priority 2017, dated 2020).
Where two headings read alike, the source gives them in different places.

Legend:
recombinant GSK3β kinase = recombinant GSK3β kinase (Homo sapiens (Human), UniProt P49841); assay: GSK3β kinase assay (Ser/Thr 09 peptide Z-lyte, FRET); format: biochemical;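 note: FRET read-out as coumarin over fluorescein emission ratio, compounds incubated one hour at room temperature, IC50 from dose-response curve fit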
Sequence of recombinant GSK3β kinase (P49841 whole entry): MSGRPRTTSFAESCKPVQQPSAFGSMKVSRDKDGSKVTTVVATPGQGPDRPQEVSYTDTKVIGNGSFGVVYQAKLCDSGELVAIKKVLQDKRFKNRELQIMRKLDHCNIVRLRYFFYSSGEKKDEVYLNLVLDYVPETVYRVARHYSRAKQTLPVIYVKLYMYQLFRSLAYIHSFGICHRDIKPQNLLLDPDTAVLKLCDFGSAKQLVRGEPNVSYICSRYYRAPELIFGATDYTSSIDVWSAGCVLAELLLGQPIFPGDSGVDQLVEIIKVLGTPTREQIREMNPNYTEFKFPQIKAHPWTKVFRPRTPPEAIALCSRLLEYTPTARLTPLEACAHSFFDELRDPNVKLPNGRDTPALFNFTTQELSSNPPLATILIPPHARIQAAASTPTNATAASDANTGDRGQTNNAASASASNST

[1] = test system: Tau phosphorylation at Ser396 (pSer396) in SH-SY5Y cells; assay: Tau phosphorylation at Ser396 (pSer396) cell assay, ELISA/western blot; format: cell-based, human; settings: Homo sapiens; SH-SY5Y cells, overnight (16-18 h); read-out: pSer396 Tau EC50
[2] = test system: Cyclin D1 phosphorylation at Threonine 286 (pCcnD1) over total Cyclin D1 in SH-SY5Y cells; assay: phosphoCcnD1 to total CcnD1 ratio (PTT) cell-based assay, western blot; settings: Homo sapiens, 48 hours
Procedure: Representative compounds were screened using the cell-based assay procedure for the ratio of signal of Cyclin D1 phosphorylation at Threonine 286 (pCcnD1) over the signal of total Cyclin D1 (CcnD1) (abbreviated: phosphoCcnD1 to total CcnD1 ratio, or PTT) as described below.
SH-SY5Y cells (human neuroblastoma, Sigma, Saint-Louis, Mo.) were cultured in 1:1 DMEM/F-12 medium supplemented with 15% FBS, 1% non-essential amino acid, and 1% penicillin/streptomycin.
SH-SY5Y cells were seeded at 1.0×10^5 cells in 1 mL per well in a 24-well plate. After cell adherence was confirmed, DMSO-resuspended Samumed compounds were dispensed to eight wells as a serial dilution from 10 μM to 4.6 nM final concentration in medium, or at 1.1 μM to 4.6 nM with particularly potent compounds. Cells were exposed to Samumed compounds for 48 hours in a 37° C. incubator.
Wells of compound-treated cells were visually checked for cell death before being washed with 500 μL per well of 1×DPBS supplemented with phosphatase inhibitor diluted to 1×. Cells were then lysed with 90 μL 1×RIPA buffer supplemented with phosphatase and protease inhibitors (each diluted to a final 1×). After scraping, 60 μL of cell lysate from each sample was used to dilute 4×LDS (ThermoFisher, NP0007) and 20×XT reducing agent (Bio-Rad, 1610792), each diluted to 1× final. All samples were then denatured via boiling at 95° C. Denatured cell sample lysates were directly tested for pCcnD1 and total CcnD1 signal by Western blot techniques and analysis. Specifically, denatured lysates were directly transferred to NuPAGE™ 4-12% Bis-Tris Midi Protein Gels, 26-well gels (ThermoFisher, WG1403BOX). Gels were transferred to […] nitrocellulose membranes via iBlot™ Transfer Stack, nitrocellulose, regular size (ThermoFisher, IB301031). Membranes were blocked with 1×TBS, 5% milk (Bio-Rad, 1706404XTU) before being probed for overnight with either anti-pCcnD1 primary antibody (Cell Signaling Technology, 2978S) or anti-total CcnD1 primary antibody (Cell Signaling Technology, 3300S) diluted 1:500 in 1×TBS-0.05% Tween-20, 3% milk. After overnight incubation in primary antibodies, membranes were washed profusely with 1×TBS-0.05% Tween-20 and probed for 1 hour with secondary anti-rabbit/HRP conjugate (Cell Signaling Technology, 7074S) diluted 1:1000 in 1×TBS-0.05% Tween-20, 3% milk. After incubation in secondary antibody, membranes were washed with 1×TBS-0.05% Tween-20.
Probed and washed membranes were developed for pCcnD1 or total CcnD1 signal with SuperSignal™ West Femto Maximum Sensitivity Substrate (ThermoFisher, 34096) using the ChemoDoc-It^2 (UVP) and related GelDocIt imaging software. Blots were then stripped, blocked, stained with anti-β-actin/HRP conjugate antibody (Cell Signaling Technology, 5125S), developed, and imaged for housekeeping β-actin protein control as previously described. Densitometry was measured with ImageJ (NIH) and signal was used to plot, draw the curves fitting, and determine the EC50 values in GraphPad Prism for tested Samumed compounds.

[3] = biological target: recombinant DYRK1A kinase (Homo sapiens (Human), UniProt Q13627); assay: DYRK1A kinase assay (Ser/Thr 18 peptide Z-lyte, FRET)
Procedure: Each compound was dissolved in DMSO as a 10 mM stock and used to prepare compound source plates.
This is a non-radioactive assay using fluorescence resonance energy transfer (FRET) between coumarin and fluorescein to detect kinase activity which is represented as a ratio of coumarin emission/fluorescein emission.
The mixture was allowed to incubate with the representative compounds for one hour at room temperature. All reactions were performed in duplicate. Unphosphorylated (“0% Control”) and phosphorylated (“100% control”) forms of Ser/Thr 18 served as control reactions. Additionally, an 11-point dose-response curve of Staurosporine (luM top) was run to serve as a positive compound control.
After incubation, Development Reagent A was diluted in Development Buffer then added to the reaction and allowed to further incubate for one hour at room temperature.
Dose-response curves were generated and inhibitory concentration (IC50) values were calculated using non-linear regression curve fit in the Dotmatics' Studies Software (Bishops Stortford, UK).

[4] = GSK3β kinase, head says EC50, method says IC50, ATP 46 μM
[5] = DYRK1A kinase, head says EC50, method says IC50, ATP 30 μM

Row | EC50 (recombinant GSK3β kinase; [4]) [nM] | EC50 [1] [nM] | EC50 [2] [nM] | EC50 [3, 5] [nM] | EC50 (recombinant GSK3β kinase) [nM] | EC50 [3] [nM] | SMILES
1 | – | 9400 | 140 | – | 1800 | 10 | CN1CCC(C(=O)Nc2cc3cc(-c4cncc(F)c4)ccc3cn2)CC1 [Compound 19, N-(6-(5-Fluoropyridin-3-yl)isoquinolin-3-yl)-1-methylpiperidine-4-carboxamide]
2 | 957 | 1450 | 9100 | 4 | – | – | COc1cncc(-c2ccc3cnc(NC(=O)C4CCN(C)CC4)cc3c2)c1 [Compound 33, N-(6-(5-Methoxypyridin-3-yl)isoquinolin-3-yl)-1-methylpiperidine-4-carboxamide]
3 | 175 | 1900 | 974 | 7 | – | – | O=C(Nc1cc2cc(-c3cncc(CN4CCCC4)c3)ccc2cn1)C1CC1 [Compound 51, N-(6-(5-(Pyrrolidin-1-ylmethyl)pyridin-3-yl)isoquinolin-3-yl) cyclopropanecarboxamide]
4 | – | 705 | 30 | – | 175 | 2 | O=C(Nc1cc2cc(-c3cncc(CN4CCC(O)CC4)c3)ccc2cn1)C1CC1 [Compound 53, N-(6-(5-((4-Hydroxypiperidin-1-yl)methyl)pyridin-3-yl)isoquinolin-3-yl) cyclopropanecarboxamide]
5 | 609 | 4900 | 45 | 5 | – | – | CN1CCN(Cc2cncc(-c3ccc4cnc(NC(=O)C5CC5)cc4c3)c2)CC1 [Compound 56, N-(6-(5-((4-Methylpiperazin-1-yl)methyl)pyridin-3-yl)isoquinolin-3-yl) cyclopropanecarboxamide]
6 | 180 | 2000 | 193 | 4 | – | – | O=C(Nc1cc2cc(-c3cncc(CN4CCOCC4)c3)ccc2cn1)C1CC1 [Compound 57, N-(6-(5-(Morpholinomethyl)pyridin-3-yl)isoquinolin-3-yl) cyclopropanecarboxamide]

Second part, the molecule before the results:

Row | SMILES | EC50 (recombinant GSK3β kinase; [4]) [nM] | EC50 [1] [nM] | EC50 [2] [nM] | EC50 [3, 5] [nM] | EC50 (recombinant GSK3β kinase) [nM] | EC50 [3] [nM]
7 | Cc1nccn1CC(=O)Nc1cc2cc(-c3cccnc3)ccc2cn1 [Compound 14, 2-(2-Methyl-1H-imidazol-1-yl)-N-(6-(pyridin-3-yl)isoquinolin-3-yl) acetamide] | 111 | 1600 | 205 | 7 | – | –
8 | O=C(Cn1ccnc1)Nc1cc2cc(-c3cccnc3)ccc2cn1 [Compound 15, 2-(1H-Imidazol-1-yl)-N-(6-(pyridin-3-yl)isoquinolin-3-yl)acetamide] | 97 | 1100 | 127 | 5 | – | –
9 | O=C(CCN1CCOCC1)Nc1cc2cc(-c3cncc(F)c3)ccc2cn1 [Compound 23, N-(6-(5-Fluoropyridin-3-yl)isoquinolin-3-yl)-3-morpholinopropanamide] | – | 8500 | 80 | – | 602 | 17
10 | [2H]c1nc([2H])c(-c2ccc3cnc(NC(=O)CN4CCCC4)cc3c2)c([2H])c1[2H] [Compound 60, N-(6-(pyridin-3-yl-d4)isoquinolin-3-yl)-2-(pyrrolidin-1-yl)acetamide] | – | 1900 | 250 | – | 404 | 10
11 | CN1CCC(C(=O)Nc2cc3cc(-c4cnccn4)ccc3cn2)CC1 [Compound 75, 1-Methyl-N-(6-(pyrazin-2-yl)isoquinolin-3-yl)piperidine-4-carboxamide] | – | > 10000 | 447 | – | 1390 | 10
12 | Cc1cncc(-c2ccc3cnc(NC(=O)CN4CCOCC4)cc3c2)c1 [Compound 146, N-(6-(5-Methylpyridin-3-yl)isoquinolin-3-yl)-2-morpholinoacetamide] | 623 | 7800 | 68 | 9 | – | –
